Holding throughout (assay type): biochemical
The target in one test is SRC (Homo sapiens, UniProt P12931). Briefly: Inhibition of a panel of kinases, in vitro HotSpot kinase assay: SRC. As for the experimental part:
(§1) The degree of inhibition of a panel of kinases is determined using the in vitro HotSpot kinase assay (purified enzymes, ^33P-ATP, an appropriate substrate and 1 μM ATP).

The target of another test is T1, JAK3 (Homo sapiens, UniProt P52333).
T1 sequence (P52333 1-1124): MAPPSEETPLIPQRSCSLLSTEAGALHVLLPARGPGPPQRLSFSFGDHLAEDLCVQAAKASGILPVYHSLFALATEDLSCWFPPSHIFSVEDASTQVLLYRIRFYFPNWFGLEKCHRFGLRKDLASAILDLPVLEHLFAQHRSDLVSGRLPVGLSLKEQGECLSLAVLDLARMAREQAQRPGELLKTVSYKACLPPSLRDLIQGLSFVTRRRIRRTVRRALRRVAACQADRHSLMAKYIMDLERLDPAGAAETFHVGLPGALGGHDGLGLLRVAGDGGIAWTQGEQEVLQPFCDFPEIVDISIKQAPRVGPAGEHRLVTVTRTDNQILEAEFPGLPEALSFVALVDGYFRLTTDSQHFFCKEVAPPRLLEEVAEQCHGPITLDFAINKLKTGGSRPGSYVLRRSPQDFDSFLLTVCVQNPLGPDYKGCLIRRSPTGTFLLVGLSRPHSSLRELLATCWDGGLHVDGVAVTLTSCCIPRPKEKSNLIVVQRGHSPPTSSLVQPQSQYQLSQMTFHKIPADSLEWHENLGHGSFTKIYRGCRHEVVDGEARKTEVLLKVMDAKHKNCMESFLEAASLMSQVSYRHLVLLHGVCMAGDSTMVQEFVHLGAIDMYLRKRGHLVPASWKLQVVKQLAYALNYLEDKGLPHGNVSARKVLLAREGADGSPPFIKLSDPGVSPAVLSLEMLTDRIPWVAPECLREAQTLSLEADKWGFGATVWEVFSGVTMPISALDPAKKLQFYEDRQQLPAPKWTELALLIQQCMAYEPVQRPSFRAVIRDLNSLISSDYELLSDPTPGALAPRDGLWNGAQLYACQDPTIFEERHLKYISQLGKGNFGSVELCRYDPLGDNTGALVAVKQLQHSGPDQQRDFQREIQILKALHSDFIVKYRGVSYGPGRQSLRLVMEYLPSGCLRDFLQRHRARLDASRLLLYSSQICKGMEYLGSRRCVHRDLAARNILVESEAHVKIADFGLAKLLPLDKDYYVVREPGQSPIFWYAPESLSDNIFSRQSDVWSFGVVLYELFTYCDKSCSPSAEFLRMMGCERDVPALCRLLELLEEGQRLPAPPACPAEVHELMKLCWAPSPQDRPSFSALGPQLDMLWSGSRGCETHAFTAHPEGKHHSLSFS
Kind of test: Inhibition of a panel of kinases, in vitro HotSpot kinase assay: JAK3. To be noted: read-out: IC50 JAK3.

The target of the next test is LCK (Homo sapiens, UniProt P06239). Briefly: Inhibition of a panel of kinases, in vitro HotSpot kinase assay: LCK. Conditions: read-out: IC50 LCK.
The target of the next test is EGFR (Homo sapiens, UniProt P00533). Briefly: Inhibition of a panel of kinases, in vitro HotSpot kinase assay: EGFR. As to the method: as §1
For the next test, the target named is T2, ITK (Homo sapiens, UniProt Q08881).
T2 sequence (Q08881 1-620): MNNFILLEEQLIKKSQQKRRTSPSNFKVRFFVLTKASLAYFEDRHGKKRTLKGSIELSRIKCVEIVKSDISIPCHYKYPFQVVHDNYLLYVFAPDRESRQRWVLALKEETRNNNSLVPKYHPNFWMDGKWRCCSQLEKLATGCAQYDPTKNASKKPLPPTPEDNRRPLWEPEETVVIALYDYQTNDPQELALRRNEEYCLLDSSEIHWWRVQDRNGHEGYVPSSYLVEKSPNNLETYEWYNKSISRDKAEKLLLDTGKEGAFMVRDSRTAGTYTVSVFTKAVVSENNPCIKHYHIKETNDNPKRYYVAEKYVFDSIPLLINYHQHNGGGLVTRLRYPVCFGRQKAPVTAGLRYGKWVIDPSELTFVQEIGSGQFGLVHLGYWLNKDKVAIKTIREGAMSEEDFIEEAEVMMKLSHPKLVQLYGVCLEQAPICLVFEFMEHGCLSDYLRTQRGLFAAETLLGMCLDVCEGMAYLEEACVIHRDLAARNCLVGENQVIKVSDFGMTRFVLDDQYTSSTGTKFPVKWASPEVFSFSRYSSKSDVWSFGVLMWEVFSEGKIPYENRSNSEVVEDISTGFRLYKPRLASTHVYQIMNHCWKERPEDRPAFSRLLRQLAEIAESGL
Briefly: Inhibition of a panel of kinases, in vitro HotSpot kinase assay: ITK. As for the experimental part:
as §1

Where [1] appears, read: Table 13, A compounds, 1 μM ATP.

The IC50 is the concentration needed to halve the response being measured.

The structures appear in SMILES notation. Where two headings read alike, the source gives them in different places. Bounds are passed on as bounds.

Chain of EGFR (P00533 25-1210): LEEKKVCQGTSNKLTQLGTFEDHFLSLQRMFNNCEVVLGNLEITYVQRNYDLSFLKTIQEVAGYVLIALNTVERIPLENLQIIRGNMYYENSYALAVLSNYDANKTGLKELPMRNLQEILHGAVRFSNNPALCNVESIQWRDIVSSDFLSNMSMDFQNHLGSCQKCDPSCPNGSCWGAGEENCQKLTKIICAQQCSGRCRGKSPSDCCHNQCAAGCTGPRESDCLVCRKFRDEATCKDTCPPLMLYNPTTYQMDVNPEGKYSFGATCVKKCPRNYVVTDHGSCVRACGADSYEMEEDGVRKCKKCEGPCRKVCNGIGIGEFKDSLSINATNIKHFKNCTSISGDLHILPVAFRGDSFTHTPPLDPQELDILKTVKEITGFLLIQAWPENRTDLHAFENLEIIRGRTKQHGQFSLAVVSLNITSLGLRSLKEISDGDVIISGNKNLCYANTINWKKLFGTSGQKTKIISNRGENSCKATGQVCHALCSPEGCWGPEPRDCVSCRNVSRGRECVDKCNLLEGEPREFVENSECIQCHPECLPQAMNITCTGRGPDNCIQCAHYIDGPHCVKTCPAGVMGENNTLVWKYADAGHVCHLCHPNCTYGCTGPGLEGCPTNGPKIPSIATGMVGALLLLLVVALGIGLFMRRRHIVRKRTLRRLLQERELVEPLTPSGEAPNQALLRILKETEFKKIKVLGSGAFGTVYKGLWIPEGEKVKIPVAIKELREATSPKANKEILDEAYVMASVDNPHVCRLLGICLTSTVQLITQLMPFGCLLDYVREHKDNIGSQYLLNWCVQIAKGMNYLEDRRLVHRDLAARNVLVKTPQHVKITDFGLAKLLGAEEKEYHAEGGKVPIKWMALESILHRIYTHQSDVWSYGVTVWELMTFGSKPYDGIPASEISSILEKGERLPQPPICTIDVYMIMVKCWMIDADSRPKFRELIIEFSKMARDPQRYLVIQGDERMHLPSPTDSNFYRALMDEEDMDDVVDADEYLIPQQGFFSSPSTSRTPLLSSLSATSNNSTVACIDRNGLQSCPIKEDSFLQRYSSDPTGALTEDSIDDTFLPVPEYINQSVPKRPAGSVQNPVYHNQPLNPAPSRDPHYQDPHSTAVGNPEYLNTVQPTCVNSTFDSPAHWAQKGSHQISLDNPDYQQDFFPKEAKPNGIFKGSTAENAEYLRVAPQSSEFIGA
Chain of SRC (P12931 whole entry): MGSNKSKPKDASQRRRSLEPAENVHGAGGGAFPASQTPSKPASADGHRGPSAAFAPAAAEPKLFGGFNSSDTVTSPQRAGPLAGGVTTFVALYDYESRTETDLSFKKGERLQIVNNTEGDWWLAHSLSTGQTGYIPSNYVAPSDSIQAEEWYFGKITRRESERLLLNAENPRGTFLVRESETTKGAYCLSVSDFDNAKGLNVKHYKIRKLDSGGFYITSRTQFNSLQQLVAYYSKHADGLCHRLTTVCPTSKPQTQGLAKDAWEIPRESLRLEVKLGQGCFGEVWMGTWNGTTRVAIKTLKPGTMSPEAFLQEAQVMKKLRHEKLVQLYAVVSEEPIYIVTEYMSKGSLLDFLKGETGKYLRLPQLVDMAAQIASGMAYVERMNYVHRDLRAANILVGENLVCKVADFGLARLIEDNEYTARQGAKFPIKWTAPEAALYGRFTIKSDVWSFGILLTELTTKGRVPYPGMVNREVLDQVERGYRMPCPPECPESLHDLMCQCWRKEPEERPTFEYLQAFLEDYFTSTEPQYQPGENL
Chain of LCK (P06239 whole entry): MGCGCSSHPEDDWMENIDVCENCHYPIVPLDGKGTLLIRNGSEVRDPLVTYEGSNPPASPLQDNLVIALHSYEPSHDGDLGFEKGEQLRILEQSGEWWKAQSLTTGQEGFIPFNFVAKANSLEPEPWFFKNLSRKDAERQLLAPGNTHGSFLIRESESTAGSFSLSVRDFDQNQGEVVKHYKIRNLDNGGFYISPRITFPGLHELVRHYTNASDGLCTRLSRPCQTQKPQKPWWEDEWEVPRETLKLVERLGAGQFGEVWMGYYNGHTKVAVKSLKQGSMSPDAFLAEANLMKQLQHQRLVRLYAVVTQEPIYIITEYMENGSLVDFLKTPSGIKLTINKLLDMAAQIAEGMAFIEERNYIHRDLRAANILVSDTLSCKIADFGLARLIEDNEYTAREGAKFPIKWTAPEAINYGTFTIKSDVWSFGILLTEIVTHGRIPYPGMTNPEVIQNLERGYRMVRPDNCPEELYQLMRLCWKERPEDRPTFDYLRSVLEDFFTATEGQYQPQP

On to `C=CC(=O)N1CCC[C@@H](N(C)c2cnc(C(N)=O)c(Nc3ccc(C4CCN(C5CCCC5)CC4)cc3)n2)C1` [Example E-125, (R)-5-((1-acryloylpiperidin-3-yl)(methyl)amino)-3-(4-(1-cyclopentylpiperidin-4-yl)phenylamino)pyrazine-2-carboxamide], for which the IC50 is at most 10 nM on SRC (E compounds, Table 17); under 10 nM on JAK3 (E compounds, Table 17); 10 to 100 nM at LCK (E compounds, Table 17); 10 to 100 nM at EGFR (E compounds, Table 17); at most 10 nM at ITK (E compounds, Table 17).

Take `C[C@@H]1[C@H](NC(=O)c2ccc(C3CC3)cc2F)CCCN1c1cnc(C(N)=O)c(Nc2ccc(N3CCN(C)CC3)c(F)c2)n1` [Example A-171, 5-[(2R,3R)-3-(4-cyclopropyl-2-fluorobenzamido)-2-methylpiperidin-1-yl]-3-{[3-fluoro-4-(4-methylpiperazin-1-yl)phenyl]amino}pyrazine-2-carboxamide]: the IC50 fell in the range of 10 to 100 nM on SRC (setting [1]); 1000 to 10000 nM at JAK3 (setting [1]); 10 to 100 nM at LCK (setting [1]); 100 to 1000 nM on EGFR (setting [1]); 100 to 1000 nM against ITK (setting [1]).

On to `Cn1cc(Nc2nc(N3CCC4CCN(C(=O)c5ccc(C6CC6)cc5)C4C3)cnc2C(N)=O)cn1` (centres unmarked) [Example E-141, 5-(1-(4-cyclopropylbenzoyl)octahydro-6H-pyrrolo[2,3-c]pyridin-6-yl)-3-((1-methyl-3H-pyrazol-4-yl)amino)pyrazine-2-carboxamide], for which the half-inhibitory concentration (IC50) on SRC (E compounds, Table 17) lay in the range of 100 to 1000 nM; on JAK3 (E compounds, Table 17), 1000 to 10000 nM; at LCK (E compounds, Table 17), 100 to 1000 nM; against EGFR (E compounds, Table 17), 100 to 1000 nM; at ITK (E compounds, Table 17), 1000 to 10000 nM.

As for `Cc1cc(C(=O)N[C@@H]2CCCN(c3cnc(C(N)=O)c(Nc4cnn(C)c4)n3)[C@@H]2C)ccc1C(C)(C)O` [Example E-152, 5-((2R,3R)-3-(4-(2-hydroxypropan-2-yl)-3-methylbenzamido)-2-methylpiperidin-1-yl)-3-((1-methyl-1H-pyrazol-4-yl)amino)pyrazine-2-carboxamide], the IC50 was in the range of 10 to 100 nM against SRC (E compounds, Table 17); 100 to 1000 nM at JAK3 (E compounds, Table 17); 10 to 100 nM on LCK (E compounds, Table 17); 1000 to 10000 nM against EGFR (E compounds, Table 17); 100 to 1000 nM at ITK (E compounds, Table 17).

On to `C[C@@H]1[C@H](NC(=O)c2ccc(C3CC3)cc2)CCCN1c1cnc(C(N)=O)c(Nc2ccc(N3CCN(C4CCCC4)C[C@@H]3C)cc2)n1` [Example E-137, 3-((4-((S)-4-cyclopentyl-2-methylpiperazin-1-yl)phenyl)amino)-5-((2R,3R)-3-(4-cyclopropylbenzamido)-2-methyipiperidin-1-yl)pyrazine-2-carboxamide], for which the IC50 against SRC (E compounds, Table 17) was in the range of 10 to 100 nM; on JAK3 (E compounds, Table 17), 1000 to 10000 nM; on LCK (E compounds, Table 17), 10 to 100 nM; at EGFR (E compounds, Table 17), 1000 to 10000 nM; at ITK (E compounds, Table 17), 10 to 100 nM.

On to `COCCN(C)Cc1cc(Nc2nc(N3CCC[C@@H](NC(=O)c4ccc(C5CC5)cc4)[C@H]3C)cnc2C(N)=O)sn1` [Example A-185, 5-((2R,3R)-3-(4-cyclopropylbenzamido)-2-methylpiperidin-1-yl)-3-(3-(((2-methoxyethyl)(meth-yl)amino)meth-yl)isothiazol-5-ylamino)pyr-azine-2-carboxamide], for which the half-maximal inhibitory concentration (IC50) is 10 to 100 nM at SRC (setting [1]); 1000 to 10000 nM on JAK3 (setting [1]); 100 to 1000 nM at LCK (setting [1]); over 10000 nM against EGFR (setting [1]); 100 to 1000 nM at ITK (setting [1]).

With `Cc1cc(Nc2nc(N3CC[C@H](O)[C@@H](N4CCC[C@@H](Nc5cc(Cl)cc(C(F)(F)F)c5)C4=O)C3)nnc2C(N)=O)sn1` [Example E-10, 3-((3R,3'S,4'S)-3-(3-chloro-5-(trifluoromethyl)phenylamino)-4′-hydroxy-2-oxo-1,3′-bipiperidin-1-yl)-5-(3-methylisothiazol-5-ylamino)-1,2,4-triazine-6-carboxamide], the 50% inhibitory concentration (IC50) was at most 10 nM at SRC (E compounds, Table 17); 1000 to 10000 nM at JAK3 (E compounds, Table 17); under 10 nM on LCK (E compounds, Table 17); 10 to 100 nM against EGFR (E compounds, Table 17); at most 10 nM against ITK (E compounds, Table 17).

These data come from patent publication US20210070748A1, “INHIBITORS OF BRUTONS TYROSINE KINASE” (Pharmacyclics LLC, priority 2015, published 2021).
